# Data reported in patent publication US20100168049A1, “COMBINATION OF MONOSACCHARIDES AND ADENOSINE AND USE THEREOF” (L'OREAL, priority 2008, published 2010).
# Key:
# [1] = test system: dermal fibroblasts of the reconstructed skin; test: Proliferation of fibroblasts in whole reconstructed skin (propidium iodide nuclei count); type: cell-based, human; conditions: 5 mM; within 48 hours of treatment
# Source text: Rhamnose was studied on a model of whole reconstructed skin in order to measure its anti-ageing efficacy on the dermal compartment.
# Briefly, the model of reconstructed skin used is that described by Bell et al. (Bell E. et al., The reconstitution of living skin, J. Invest. Dermatol., 1983, July; 81): it includes a dermal equivalent on which is reconstructed a multistratified epidermis; the dermal equivalent is manufactured from acid-soluble collagen, culture medium containing serum and normal adult human fibroblasts. After 5 days of shrinkage, this equivalent is inoculated with keratinocytes and then cultured for 6 days in immersion and for 7 days in emersion in order to obtain a multistratified and differentiated epidermis having a horny layer.
# The reconstructed skin is treated with 5 mM rhamnose for 2 days and 5 days in the culture medium; after the treatment, the reconstructed skins are included in Tissue Tek in order to produce frozen sections 7 μm thick with a cryostat. […] Three frozen sections are prepared at random on each reconstructed skin; on each section, two microscopic fields (25× objective lens) are analysed by fluorescence microscopy and photographed. The dermal fibroblasts are thus counted for each reconstructed skin on six images in total representing the six microscopic fields considered. […]
# type I procollagen = test: Synthesis of procollagen 1 in reconstructed skin (indirect immunofluorescence); type: cell-based, human; conditions: for procollagen 1 synthesis: reconstructed skin
# Protocol: Conventional detection via indirect immunofluorescence of type I procollagen in the dermis of the reconstructed skin was also performed on other series of frozen sections (anti-procoll 1 antibody (MAB 1912 Millipore)+FTIC-coupled conjugate (112-095-068 Jackson Immunoresearch)). In order to obtain bearings within the cutaneous architecture during the microscopic examination of the sections, the cell nuclei of the keratinocytes and fibroblasts are localized by staining them with propidium iodide, as described above. Three frozen sections are prepared at random on each reconstructed skin and on each section, and two microscopic fields (25× objective lens) are analysed by fluorescence microscopy and photographed. The levels of fluorescence proportional to the amount of type I procollagen are compared between the control skin and the skin treated with rhamnose.
# [2] = test system: keratinocytes (HaCat line); test: Proliferation of keratinocytes (Cyquant, Nile red, XTT markers); type: cell-based
# Protocol: The keratinocytes (HaCat line) are cultured under two conditions: whole defined culture medium (standard condition) and culture medium deficient in growth factors. This deficient medium gives rise to a controlled delay in cell proliferation. Under these conditions, it is then possible to measure the effects of compounds capable of compensating for the deficiency in growth factors of the culture medium and thus of relaunching the cell multiplication and/or of stimulating cell metabolism.
# The keratinocyte proliferation is measured by means of three markers on the same cell population: the level of DNA, which is proportional to the number of cells (Cyquant probe), the level of constituent polar lipids of cell membranes (Nile red probe) and the mitochondrial respiration, which reflects the general cell metabolism (XTT probe).
smiles,measurement,setting,value
"C[C@H](O)[C@H](O)[C@@H](O)[C@@H](O)C=O [rhamnose, L-rhamnose]",growth of the dermal fibroblasts,[1],stimulation of growth
same,green fluorescence (proportional to the amount of type I procollagen) vs control skin,"type I procollagen; 1 mM, 120 hours",marked increase
same,synthesis of type I procollagen by the fibroblasts,"type I procollagen; 1 mM, 120 hours",greatly stimulated
same,procollagen 1 synthesis,type I procollagen; 1 mM,stimulation of procollagen 1 synthesis
same,procollagen 1 synthesis,type I procollagen; 5 mM,stimulation of procollagen 1 synthesis
same,keratinocyte proliferation,[2]; keratinocytes cultured in medium depleted in growth factors,activate keratinocyte proliferation
same,number of cells compared with an untreated control,[2]; medium depleted in growth factor,higher number of cells
